# Experimental data published in the CheMixHub viscosity set.
# ± gives the uncertainty stated by the source.
# Assay: xn = mol fraction of the nth substance listed
# Details: 101 kPa
smiles,measurement,setting,value
OCCCOCCCO + NCCN,viscosity,"293.15 K, x1 = 0.023",1.77 ± 0.03 mPa·s
same,viscosity,"293.15 K, x1 = 0.0474",2.1 ± 0.03 mPa·s
same,viscosity,"293.15 K, x1 = 0.0733",2.51 ± 0.03 mPa·s
same,viscosity,"293.15 K, x1 = 0.1007",3.07 ± 0.04 mPa·s
same,viscosity,"293.15 K, x1 = 0.1299",3.75 ± 0.04 mPa·s
same,viscosity,"293.15 K, x1 = 0.1611",4.7 ± 0.04 mPa·s
same,viscosity,"293.15 K, x1 = 0.1943",5.97 ± 0.05 mPa·s
same,viscosity,"293.15 K, x1 = 0.23",7.72 ± 0.06 mPa·s
same,viscosity,"293.15 K, x1 = 0.2682",10.2 ± 0.1 mPa·s
same,viscosity,"293.15 K, x1 = 0.3094",13.7 ± 0.1 mPa·s
same,viscosity,"293.15 K, x1 = 0.3538",18.7 ± 0.1 mPa·s
same,viscosity,"293.15 K, x1 = 0.4019",25.9 ± 0.2 mPa·s
same,viscosity,"293.15 K, x1 = 0.4541",36.7 ± 0.3 mPa·s
same,viscosity,"293.15 K, x1 = 0.5111",48.7 ± 0.3 mPa·s
same,viscosity,"293.15 K, x1 = 0.5734",63.9 ± 0.4 mPa·s
same,viscosity,"293.15 K, x1 = 0.6418",79.4 ± 0.8 mPa·s
same,viscosity,"293.15 K, x1 = 0.7174",93.8 ± 1.1 mPa·s
same,viscosity,"293.15 K, x1 = 0.8013",105 ± 2 mPa·s
same,viscosity,"293.15 K, x1 = 0.8949",112 ± 2 mPa·s
same,viscosity,"298.15 K, x1 = 0.023",1.59 ± 0.03 mPa·s
same,viscosity,"298.15 K, x1 = 0.0474",1.86 ± 0.03 mPa·s
same,viscosity,"298.15 K, x1 = 0.0733",2.19 ± 0.03 mPa·s
same,viscosity,"298.15 K, x1 = 0.1007",2.66 ± 0.03 mPa·s
same,viscosity,"298.15 K, x1 = 0.1299",3.23 ± 0.04 mPa·s
same,viscosity,"298.15 K, x1 = 0.1611",4.01 ± 0.04 mPa·s
same,viscosity,"298.15 K, x1 = 0.1943",4.99 ± 0.05 mPa·s
same,viscosity,"298.15 K, x1 = 0.23",6.39 ± 0.05 mPa·s
same,viscosity,"298.15 K, x1 = 0.2682",8.28 ± 0.06 mPa·s
same,viscosity,"298.15 K, x1 = 0.3094",10.9 ± 0.1 mPa·s
same,viscosity,"298.15 K, x1 = 0.3538",14.7 ± 0.1 mPa·s
same,viscosity,"298.15 K, x1 = 0.4019",19.8 ± 0.1 mPa·s
same,viscosity,"298.15 K, x1 = 0.4541",26.7 ± 0.2 mPa·s
same,viscosity,"298.15 K, x1 = 0.5111",35.4 ± 0.2 mPa·s
same,viscosity,"298.15 K, x1 = 0.5734",45.7 ± 0.3 mPa·s
same,viscosity,"298.15 K, x1 = 0.6418",56.4 ± 0.3 mPa·s
same,viscosity,"298.15 K, x1 = 0.7174",66 ± 0.5 mPa·s
same,viscosity,"298.15 K, x1 = 0.8013",73.2 ± 0.6 mPa·s
same,viscosity,"298.15 K, x1 = 0.8949",77.9 ± 0.7 mPa·s
same,viscosity,"303.15 K, x1 = 0.023",1.34 ± 0.03 mPa·s
same,viscosity,"303.15 K, x1 = 0.0474",1.55 ± 0.03 mPa·s
same,viscosity,"303.15 K, x1 = 0.0733",1.81 ± 0.03 mPa·s
same,viscosity,"303.15 K, x1 = 0.1007",2.16 ± 0.03 mPa·s
same,viscosity,"303.15 K, x1 = 0.1299",2.59 ± 0.03 mPa·s
same,viscosity,"303.15 K, x1 = 0.1611",3.16 ± 0.04 mPa·s
same,viscosity,"303.15 K, x1 = 0.1943",3.9 ± 0.04 mPa·s
same,viscosity,"303.15 K, x1 = 0.23",4.91 ± 0.05 mPa·s
same,viscosity,"303.15 K, x1 = 0.2682",6.24 ± 0.05 mPa·s
same,viscosity,"303.15 K, x1 = 0.3094",8.09 ± 0.06 mPa·s
same,viscosity,"303.15 K, x1 = 0.3538",10.7 ± 0.1 mPa·s
same,viscosity,"303.15 K, x1 = 0.4019",14.1 ± 0.1 mPa·s
same,viscosity,"303.15 K, x1 = 0.4541",18.6 ± 0.1 mPa·s
same,viscosity,"303.15 K, x1 = 0.5111",24.1 ± 0.2 mPa·s
same,viscosity,"303.15 K, x1 = 0.5734",30.6 ± 0.2 mPa·s
same,viscosity,"303.15 K, x1 = 0.6418",37.3 ± 0.3 mPa·s
same,viscosity,"303.15 K, x1 = 0.7174",43.3 ± 0.3 mPa·s
same,viscosity,"303.15 K, x1 = 0.8013",47.9 ± 0.3 mPa·s
same,viscosity,"303.15 K, x1 = 0.8949",50.6 ± 0.3 mPa·s
same,viscosity,"308.15 K, x1 = 0.023",1.21 ± 0.03 mPa·s
same,viscosity,"308.15 K, x1 = 0.0474",1.4 ± 0.03 mPa·s
same,viscosity,"308.15 K, x1 = 0.0733",1.62 ± 0.03 mPa·s
same,viscosity,"308.15 K, x1 = 0.1007",1.92 ± 0.03 mPa·s
same,viscosity,"308.15 K, x1 = 0.1299",2.28 ± 0.03 mPa·s
same,viscosity,"308.15 K, x1 = 0.1611",2.76 ± 0.03 mPa·s
same,viscosity,"308.15 K, x1 = 0.1943",3.34 ± 0.04 mPa·s
same,viscosity,"308.15 K, x1 = 0.23",4.16 ± 0.04 mPa·s
same,viscosity,"308.15 K, x1 = 0.2682",5.22 ± 0.05 mPa·s
same,viscosity,"308.15 K, x1 = 0.3094",6.65 ± 0.05 mPa·s
same,viscosity,"308.15 K, x1 = 0.3538",8.62 ± 0.07 mPa·s
same,viscosity,"308.15 K, x1 = 0.4019",11.1 ± 0.1 mPa·s
same,viscosity,"308.15 K, x1 = 0.4541",14.4 ± 0.1 mPa·s
same,viscosity,"308.15 K, x1 = 0.5111",18.4 ± 0.1 mPa·s
same,viscosity,"308.15 K, x1 = 0.5734",22.9 ± 0.2 mPa·s
same,viscosity,"308.15 K, x1 = 0.6418",27.6 ± 0.2 mPa·s
same,viscosity,"308.15 K, x1 = 0.7174",31.9 ± 0.2 mPa·s
same,viscosity,"308.15 K, x1 = 0.8013",35.1 ± 0.2 mPa·s
same,viscosity,"308.15 K, x1 = 0.8949",36.8 ± 0.2 mPa·s
same,viscosity,"313.15 K, x1 = 0.023",1.09 ± 0.03 mPa·s
same,viscosity,"313.15 K, x1 = 0.0474",1.24 ± 0.03 mPa·s
same,viscosity,"313.15 K, x1 = 0.0733",1.44 ± 0.03 mPa·s
same,viscosity,"313.15 K, x1 = 0.1007",1.71 ± 0.03 mPa·s
same,viscosity,"313.15 K, x1 = 0.1299",2 ± 0.03 mPa·s
same,viscosity,"313.15 K, x1 = 0.1611",2.43 ± 0.03 mPa·s
same,viscosity,"313.15 K, x1 = 0.1943",2.88 ± 0.04 mPa·s
same,viscosity,"313.15 K, x1 = 0.23",3.55 ± 0.04 mPa·s
same,viscosity,"313.15 K, x1 = 0.2682",4.37 ± 0.04 mPa·s
same,viscosity,"313.15 K, x1 = 0.3094",5.56 ± 0.05 mPa·s
same,viscosity,"313.15 K, x1 = 0.3538",7 ± 0.06 mPa·s
same,viscosity,"313.15 K, x1 = 0.4019",8.87 ± 0.07 mPa·s
same,viscosity,"313.15 K, x1 = 0.4541",11.2 ± 0.1 mPa·s
same,viscosity,"313.15 K, x1 = 0.5111",14.1 ± 0.1 mPa·s
same,viscosity,"313.15 K, x1 = 0.5734",17.4 ± 0.1 mPa·s
same,viscosity,"313.15 K, x1 = 0.6418",20.7 ± 0.1 mPa·s
same,viscosity,"313.15 K, x1 = 0.7174",23.7 ± 0.2 mPa·s
same,viscosity,"313.15 K, x1 = 0.8013",26 ± 0.2 mPa·s
same,viscosity,"313.15 K, x1 = 0.8949",27.3 ± 0.2 mPa·s
same,viscosity,"318.15 K, x1 = 0.023",0.991 ± 0.029 mPa·s
same,viscosity,"318.15 K, x1 = 0.0474",1.13 ± 0.03 mPa·s
same,viscosity,"318.15 K, x1 = 0.0733",1.3 ± 0.03 mPa·s
same,viscosity,"318.15 K, x1 = 0.1007",1.53 ± 0.03 mPa·s
same,viscosity,"318.15 K, x1 = 0.1299",1.79 ± 0.03 mPa·s
